In assay [1] the test system is Hyp1-NLuc Plasmodium falciparum-infected erythrocytes (new permeability pathway, NPP). Description: microbe, parasite or virus in culture. The note with it: Erythrocyte, 0.33 h, read-out: % of control remaining.
The test system is the same in assay [2]. Description: microbe, parasite or virus in culture. The note with it: Erythrocyte, 0.33 h, read-out: Mean RLU at 28 min (As % of DMSO control).

Read-outs that look alike come from different tables or passages of the source.

Consider `CC(C)c1ccc(CNCC(O)c2ccccc2)cc1` (stereo not drawn) [MMV001049], for which the activity at 2 µM is 116% in assay [1] and 113% in assay [2].
In the same order, the values of `CCOc1cccc2sc(N(Cc3cccnc3)C(=O)C3CCCCC3)nc12` [MMV001230] are 113% and 103%.
On the same counts, the results for `COc1ccc2sc(N(Cc3cccnc3)C(=O)c3ccc(C#N)cc3)nc2c1` [MMV001239] are 64.1% and 92.1%.
Consider `COc1ccc(C)c2sc(N(Cc3cccnc3)C(=O)c3ccc(C#N)cc3)nc12` [MMV001241], for which the activity at 2 µM turned out to be 100% in assay [1] and 101% in assay [2].
In the case of `CSc1ccccc1C(=O)Nc1nc(-c2ccccn2)cs1` [MMV001246], the activity at 2 µM was 106% in assay [1] and 112% in assay [2].
As for `CCCCc1ccc(NS(=O)(=O)c2cc3c4c(c2)CCN4C(=O)CC3)cc1` [MMV001255], the activity at 2 µM in assay [1] amounted to 89.2%; in assay [2], 100%.
With `O=C(Nc1ccc(Br)cc1)Nc1cccc(Cl)c1` [MMV001318], the activity at 2 µM in assay [1] is 107%; in assay [2] it was 105%.
Regarding `CC1CC(C)CN(C(=O)c2ccc(Cl)cc2Cl)C1` (stereo not drawn) [MMV001344], the activity at 2 µM in assay [1] stood at 107%; in assay [2] it was 106%.
In the same order, the values of `CCN(CC)CCNc1ccnc2cc(Cl)ccc12` [MMV006087] are 105% and 107%.
With `c1ccc(CNc2nc(Nc3ccccc3)nc3ccccc23)cc1` [MMV006169], the activity at 2 µM in assay [1] amounted to 114%; in assay [2] it was 102%.
`CN1CCN(c2ccc(Nc3c4ccccc4nc4ccccc34)cc2)CC1` [MMV006172]: the activity at 2 µM in assay [1] was 96.4%; in assay [2], 97.7%.
As for `O=C(NCc1ccco1)C1CCN(S(=O)(=O)c2ccc(Cl)cc2)CC1` [MMV006188], the activity at 2 µM in assay [1] was found to be 112%; in assay [2] it was 106%.
For the molecule `Cc1cc(NCCN2CCCCC2)c2ccc3ccccc3c2n1` [MMV006203], the results for the activity at 2 µM in assay [1] and in assay [2] were 99.9% and 103%, respectively.
In the same order, the values of `CCOC(=O)c1cnc2c(C)cccc2c1Nc1ccc(C(C)=O)cc1` [MMV006250] are 103% and 95.8%.
For `CCc1c(C)c(=N)c2ccccc2n1C` [MMV006278], the results for the activity at 2 µM in assay [1] and in assay [2] were 99.6% and 98.8%, respectively.
In the same order, the values of `CCN(CC)CCNc1ccnc2cc3ccccc3cc12` [MMV006303] are 107% and 109%.
Take `CN(C)c1ccc(C=Cc2nc(=O)c3ccccc3o2)cc1` [MMV006309]: the activity at 2 µM in assay [1] stood at 19%; in assay [2] it was 36.4%.
On the same counts, the results for `Cc1cc(Nc2cccc(F)c2)nc(NCc2ccccc2)n1` [MMV006319] are 104% and 102%.
On the same counts, the results for `O=C1c2ccccc2C2=Nc3ccccc3SC(c3cccc(F)c3)C12` (stereo not drawn) [MMV006389] are 102% and 98.3%.
As to `COc1cc(OC)c(N(C)C(=O)c2cc3c(s2)-c2ccccc2S(=O)(=O)C3)cc1Cl` [MMV006427], the figures for the activity at 2 µM in assay [1] and in assay [2] were 104% and 105%, respectively.
In the same order, the values of `Cc1cc(NC(=O)C2c3ccccc3C(=O)N(CC(C)C)C2c2cccs2)no1` (stereo not drawn) [MMV006429] are 98.1% and 99.6%.
On the same counts, the results for `CCCN(CCC)CC(O)COc1ccccc1C(=O)Nc1ccccc1` (stereo not drawn) [MMV006455] are 104% and 105%.
For `CCOC(=O)c1ccc2nc(-c3ccccc3)cc(O)c2c1` [MMV006457], the values for the activity at 2 µM in assay [1] and in assay [2] were 93.7% and 104%, respectively.
Take `c1ccc2c(NCCc3c[nH]c4ccccc34)c3ccccc3nc2c1` [MMV006513]: the values for the activity at 2 µM in assay [1] and in assay [2] were 106% and 96.2%, respectively.
On the same counts, the results for `CCOc1ccc2nc(C)cc(Nc3ccc(Br)cc3)c2c1` [MMV006522] are 104% and 102%.
On the same counts, the results for `CCN(CC)CCNc1ncnc2c1[nH]c1ccc(Br)cc12` [MMV006545] are 110% and 120%.
In the same order, the values of `Cc1cc(C)c2c(c1)OCN(Cc1ccccc1Cl)C2` [MMV006558] are 108% and 108%.
As for `Clc1ccc2[nH]c3c(NCCCN4CCOCC4)ncnc3c2c1` [MMV006587], the activity at 2 µM in assay [1] came out at 102%; in assay [2], 116%.
On the same counts, the results for `CCOC(=O)C1=CN(C)C=C(C(=O)OCC)C1c1cc(Br)c(OCC)c(OC)c1` [MMV006656] are 102% and 105%.
Take `CN(C)CCNc1cc(-c2ccccc2)nc2ccccc12` [MMV006704]: the activity at 2 µM came to 92% in assay [1] and 90.8% in assay [2].
On the same counts, the results for `Cc1cc(N2CCN(C3CCCC3)CC2)n2c(nc3ccccc32)c1C#N` [MMV006706] are 117% and 118%.
On the same counts, the results for `Cc1cc(=O)oc2c1ccc1oc(C(=O)c3ccccc3)c(C)c12` [MMV006753] are 108% and 103%.
On the same counts, the results for `CCOc1c(Br)cc(C2C(C(=O)OC)=CN(C)C=C2C(=O)OC)cc1OC` [MMV006764] are 85.8% and 80.4%.
For the molecule `COc1cc2cc(C(=O)Nc3ccccc3)c(N)nc2cc1OC` [MMV006767], the activity at 2 µM in assay [1] and in assay [2] was 119% each time.
As for `CC(C)CCNCC(O)Cn1c2ccccc2c2ccccc21` (stereo not drawn) [MMV006787], the activity at 2 µM amounted to 98.6% in assay [1] and 97.5% in assay [2].
In the same order, the values of `CCCCc1c(C)nc2c(OC)cccc2c1O` [MMV006820] are 105% and 106%.
Take `COc1ccc(Nc2cc(C)nc(NCc3ccccc3)n2)cc1` [MMV006825]: the figures for the activity at 2 µM in assay [1] and in assay [2] were 110% and 107%, respectively.
`c1ccc2cc3c(Nc4ccc(N5CCOCC5)cc4)ccnc3cc2c1` [MMV006861]: the figures for the activity at 2 µM in assay [1] and in assay [2] were 102% and 109%, respectively.
In the same order, the values of `CCOC(=O)c1cnc2ccc(Cl)cc2c1NCCCN(C)C` [MMV006882] are 110% and 106%.
On the same counts, the results for `C=CCc1c(C)nc2ccccc2c1O` [MMV006913] are 115% and 116%.
In the same order, the values of `Cc1ccc(-c2cc3nc4c(c(O)n3n2)CCCC4)cc1` [MMV006937] are 58.4% and 100%.
Take `O=C(Nc1ccc(-c2nc3cc(NC(=O)c4ccc(Cl)cc4)ccc3[nH]2)cc1)c1ccc(Cl)cc1` [MMV006962]: the activity at 2 µM in assay [1] amounted to 99.7%; in assay [2] it was 101%.
On the same counts, the results for `CCOc1ccc2nc(C)cc(Nc3ccc(N(C)C)cc3)c2c1` [MMV007020] are 102% and 102%.
In the same order, the values of `Cc1ccc2c(C)nc(Nc3nc(C)cc(-c4ccccc4)n3)nc2c1` [MMV007041] are 98.8% and 104%.
On the same counts, the results for `CCOc1ccc(CN2CCN(CC(O)COc3ccc(OCC(O)CN4CCN(Cc5ccc(OCC)cc5)CC4)cc3)CC2)cc1` (stereo not drawn) [MMV007092] are 98.2% and 105%.
As to `c1ccc(C2=Nc3ccccc3N=C(c3ccccc3)c3ccccc32)cc1` [MMV007113], the results for the activity at 2 µM in assay [1] and in assay [2] were 111% and 103%, respectively.
For `CCOC(=O)c1cnc2ccc(CC)cc2c1O` [MMV007116], the activity at 2 µM in assay [1] stood at 85.3%; in assay [2], 103%.
`OC1=C2C(=Nc3ccccc3SC2c2ccc(Br)cc2)c2ccccc21` (stereo not drawn) [MMV007127]: the activity at 2 µM in assay [1] was 114%; in assay [2] it was 108%.
In the same order, the values of `Cc1ccc(N2C3c4ccccc4N(S(=O)(=O)c4ccc(C)cc4)C2c2ccccc2N3S(=O)(=O)c2ccc(C)cc2)cc1` [MMV007160] are 103% and 103%.
Turning to `Cc1cc(Nc2ccc(OCc3ccccc3)cc2)nc2cc(O)ccc12` [MMV007181], the activity at 2 µM in assay [1] is 108%; in assay [2], 105%.
On the same counts, the results for `COc1ccccc1N1C(=N)SC(=Cc2ccc(OCc3ccccc3F)cc2)C1=O` [MMV007199] are 62.6% and 86.7%.
Take `COc1ccc(OC)c(C2C3=C(CC(C)(C)CC3=O)N(c3ccc(Cl)c(Cl)c3)C3=C2C(=O)CC(C)(C)C3)c1` [MMV007208]: the activity at 2 µM worked out at 104% in assay [1] and 102% in assay [2].
Consider `Brc1ccc(Nc2nc3ccccc3nc2Nc2ccc(Br)cc2)cc1` [MMV007224], for which the activity at 2 µM came out at 104% in assay [1] and 95.5% in assay [2].
In the same order, the values of `Cc1cccc(N2C(=O)C3C(C2=O)C2(c4ccccc4)C(=O)C3(c3ccccc3)C(c3ccc4c(c3)OCO4)=C2c2ccc3c(c2)OCO3)c1` (stereo not drawn) [MMV007228] are 107% and 99.5%.
In the case of `COc1cc(-c2nc(-c3ccc(Sc4ccccc4)cc3)c(-c3ccccc3)[nH]2)cc(OC)c1O` [MMV007273], the activity at 2 µM in assay [1] is 105%; in assay [2], 97.2%.
In the same order, the values of `Cc1ccc(F)cc1NC(=O)c1cc(Cl)ccc1Nc1ccccc1` [MMV007275] are 116% and 106%.
With `CCOc1ccc(Nc2ccnc3cc(Cl)ccc23)cc1` [MMV007285], the activity at 2 µM in assay [1] is 102%; in assay [2] it was 107%.
For `Clc1ccc2c(N3CCCC3)ccnc2c1` [MMV007363], the activity at 2 µM in assay [1] was found to be 115%; in assay [2], 114%.
In the same order, the values of `CCc1ccc(Nc2cc(C)nc3nc(C)nn23)cc1` [MMV007374] are 114% and 113%.
On the same counts, the results for `COc1ccc(-c2nc3cc(Cc4ccc5[nH]c(-c6ccc(OC)cc6)nc5c4)ccc3[nH]2)cc1` [MMV007384] are 45.6% and 82.1%.

These data come from paper PMC5118696, “Identification of inhibitors that dually target the new permeability pathway and dihydroorotate dehydrogenase in the blood stage of Plasmodium falciparum” (Scientific Reports, 2016).
